From patent US6762160B2, “Composition for removing biofilms comprising a detergent and a salt forming acid” (Universite de Montreal, priority 1998, dated 2004)
“Also recorded” adds a separate entry of the source.

How the values were obtained:
[1] = system: dental unit waterlines bacteria; experiment: Antibacterial activity: growth in R2Am medium after disinfection of tubings;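 further: disinfected tubing pieces kept 7 days at room temperature in R2Am medium, then scored for presence or absence of bacterial growth by absorbance at 590 nm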
Experimental: To test the antibacterial activity, we used the same setup as above. After the 1 or 18 hour incubation, tubings were rinsed with sterile water. Pieces of tubings were dropped in sterile test tubes containing 4 ml of R2Am medium. Test tubes were capped and incubated for 7 days at room temperature. […] Data were recorded as presence or absence of growth with a spectrophotometer at λ=590 nm.

[2] = system: mature biofilms on lumen of dental unit waterlines tubings; experiment: Biofilm removal from dental unit waterline tubing pieces, binocular microscope 40x, arbitrary scale; type: cell-based, dental unit waterlines bacteria; settings: for detergent capable of dislodging biofilms: different types of detergents tried; on RESULTS AFTER DISINFECTION 1 hour (biofilm scale): key: −: no biofilm; ++++: + ++ + : no significant removal of film; on RESULTS AFTER DISINFECTION 18 hours (biofilm scale): key: −: no biofilm; ++++: + ++ + : no significant removal of film
Experimental: Two-cm long pieces of dental unit waterlines tubings were used. These tubings were taken from functional dental units installed at the faculty of dentistry of the University of Montreal. […] The pieces were sectioned longitudinally with a sterile scalpel blade to expose the biofilm. Another series of tubings was left untouched. Sections of tubings were placed in sterile 5 ml disposable test tubes containing solutions to be tested.
After 1 or 18 hours without agitation at room temperature, tubings were rinsed three times with sterile water.

Mycobacterium sp. = type: cell-based
[3] = selected acid 1% with H2O2 5%, EDTA 1%, SDS 1%, pH 5,0, tubing incubated 7 days in R2Am, 590 nm
[4] = selected acid 1% with H2O2 5%, EDTA 1%, SDS 1%, pH 5,0, 18 hours contact, room temperature, no agitation
[5] = acid 1% in H2O2 5%/EDTA 1%/SDS 1% solution, pH 5.0, 1 hour or 18 hours
[6] = selected acid 1% with H2O2 5%, EDTA 1%, SDS 1%, pH 5,0, 1 hour contact, room temperature, no agitation

With CC(O)C(=O)O (centres unmarked) [Lactic Acid] the “RESULTS AFTER DISINFECTION Growth” value [1, 3] was “−”.

In the case of O=P(O)(O)O [Phosphoric Acid (H3PO4), Phosphoric Acid], the “RESULTS AFTER DISINFECTION 18 hours (biofilm scale)” value (“RESULTS AFTER DISINFECTION 18 hours” for short) [2, 4] is reported as “−” and the “RESULTS AFTER DISINFECTION Growth” value [1, 3] is reported as “−”.

In the case of CC(=O)C(=O)O [Pyruvic Acid], the “RESULTS AFTER DISINFECTION 18 hours” value [2, 4] is reported as “−” and the “RESULTS AFTER DISINFECTION Growth” value [1, 3] is reported as “−”.

With N[C@@H](CO)C(=O)O [L-Serine] the “acceptably performing acids: decontamination within the specified times” value (shortened to “acceptably performing acids”) [2, 5] was “sufficient decontamination” and the “RESULTS AFTER DISINFECTION Growth” value [1, 3] was “−”.

In the case of CC(N)C(=O)O (racemic) [DL-Alanine], the “RESULTS AFTER DISINFECTION 18 hours” value [2, 4] is reported as “−” and the “RESULTS AFTER DISINFECTION Growth” value [1, 3] is reported as “−”.

For N[C@@H](Cc1c[nH]c2ccccc12)C(=O)O [L-Tryptophan], the “acceptably performing acids” value ([2]; pH 5) was “sufficient decontamination” and the “RESULTS AFTER DISINFECTION Growth” value ([1]; pH 5) was “−”.

With O=C(O)CCCCC(=O)O [Adipic Acid] the “acceptably performing acids” value [2, 5] was “sufficient decontamination” and the “RESULTS AFTER DISINFECTION Growth” value [1, 3] was “−”.

For O=C(O)CCC(=O)C(=O)O [2-Ketoglutaric Acid], the “RESULTS AFTER DISINFECTION 1 hour (biofilm scale)” value (from here on “RESULTS AFTER DISINFECTION 1 hour”) ([2]; pH 5) was “−”, the “RESULTS AFTER DISINFECTION 18 hours” value ([2]; pH 5) was “−” and the “RESULTS AFTER DISINFECTION Growth” value ([1]; pH 5) was “−”.

In the case of R-Chloromandelic Acid, the “acceptably performing acids” value [2, 5] is reported as “sufficient decontamination” and the “RESULTS AFTER DISINFECTION Growth” value [1, 3] is reported as “−”.

For O=C(O)C(=O)c1ccccc1 [Benzoylformic Acid], the “acceptably performing acids” value [2, 5] was “sufficient decontamination” and the “RESULTS AFTER DISINFECTION Growth” value [1, 3] was “−”.

In the case of CCCCCCCCCCCCOS(=O)(=O)[O-].[Na+] [SDS, Sodium dodecyl sulfate], the “biofilm removal efficiency after 18 hours” value ([2]; SDS 0.15% with 6% hydrogen peroxide, HEEDTA 0.3%, acetic acid 0.1%, zinc sulfate heptahydrate 0.1%, pH adjusted to 5, 18 hours) is reported as “perfect efficiency”, the “biofilm removal activity after one hour” value ([2]; SDS 0.15% with 6% hydrogen peroxide, HEEDTA 0.3%, acetic acid 0.1%, zinc sulfate heptahydrate 0.1%, pH adjusted to 5, one hour, sulfate) is reported as “very good activity; also recorded: did work well” and the “cleaning efficacy within one hour” value ([2]; SDS 1%, within one hour) is reported as “perfect cleaning efficacy”. The “detergent capable of dislodging biofilms” value [2] was “capable of dislodging biofilms”.

For NC(=O)C(=O)O [Oxamic Acid], the “acceptably performing acids” value [2, 5] was “sufficient decontamination” and the “RESULTS AFTER DISINFECTION Growth” value [1, 3] was “−”.

Oc1ccccc1 [phenol] was tested, and the “killing activity of bactericide, even against Mycobacterium sp.” value (“killing activity of bactericide, even” for short) (Mycobacterium sp.) was “efficient” and the “bactericide tried in cleaning solution” value [1] was “success”.

With O=C(O)CN(CCO)CCO [Bicine] the “acceptably performing acids” value [2, 5] was “sufficient decontamination” and the “RESULTS AFTER DISINFECTION Growth” value [1, 3] was “−”.

In the case of O=C(O)CC(=O)O [Malonic Acid], the “RESULTS AFTER DISINFECTION Growth” value [1, 3] is reported as “−”.

With O=C[C@H](O)[C@@H](O)[C@H](O)[C@H](O)C(=O)O [Glucuronic Acid] the “acceptably performing acids” value [2, 5] was “sufficient decontamination” and the “RESULTS AFTER DISINFECTION Growth” value [1, 3] was “−”.

With O=C(O)CNCC(=O)O [Iminodiacetic Acid] the “RESULTS AFTER DISINFECTION 1 hour” value [2, 6] was “−”, the “RESULTS AFTER DISINFECTION 18 hours” value [2, 4] was “−” and the “RESULTS AFTER DISINFECTION Growth” value [1, 3] was “−”.

For NC(Cc1ccc(O)cc1)C(=O)O (racemic) [DL-Tyrosine], the “acceptably performing acids” value [2, 5] was “sufficient decontamination” and the “RESULTS AFTER DISINFECTION Growth” value [1, 3] was “−”.

O=C(O)C(Cl)Cl [Dichloroacetic Acid] was tested, and the “acceptably performing acids” value ([2]; pH 5) was “sufficient decontamination” and the “RESULTS AFTER DISINFECTION Growth” value [1, 3] was “−”.

For OCl [sodium hypochlorite], the “killing activity of bactericide, even” value (Mycobacterium sp.) was “broad host killing activity; also recorded: efficient”.

O=C(O)/C=C\C(=O)O [Maleic Acid] was tested, and the “acceptably performing acids” value [2, 5] was “sufficient decontamination” and the “RESULTS AFTER DISINFECTION Growth” value [1, 3] was “−”.

O=C(O)CCC(=O)O [Succinic Acid] was tested, and the “acceptably performing acids” value [2, 5] was “sufficient decontamination” and the “RESULTS AFTER DISINFECTION Growth” value [1, 3] was “−”.

With CC(=O)O [Acetic Acid] the “salt-forming acid tried against biofilm” value ([2]; acetic acid 0.1% to 1%) was “very efficient”, the “RESULTS AFTER DISINFECTION 1 hour” value [2, 6] was “−” and the “RESULTS AFTER DISINFECTION 18 hours” value [2, 4] was “−”. The “RESULTS AFTER DISINFECTION Growth” value [1, 3] was “−”.

In the case of O=C(O)CC(O)(CC(=O)O)C(=O)O [Citric Acid], the “acceptably performing acids” value [2, 5] is reported as “sufficient decontamination” and the “RESULTS AFTER DISINFECTION Growth” value [1, 3] is reported as “−”.

For Tetrasodium EDTA, the “chelator tried against biofilms” value [2] was “a certain degree of success”.

For Ketopimelic Acid, the “acceptably performing acids” value [2, 5] was “sufficient decontamination” and the “RESULTS AFTER DISINFECTION Growth” value [1, 3] was “−”.

N[C@@H](CC(=O)O)C(=O)O [L-Aspartic Acid] was tested, and the “RESULTS AFTER DISINFECTION 18 hours” value [2, 4] was “−” and the “RESULTS AFTER DISINFECTION Growth” value [1, 3] was “−”.

For O=C(O)CN(CC(=O)O)CC(=O)O [Nitrilotriacetic Acid], the “acceptably performing acids” value [2, 5] was “sufficient decontamination” and the “RESULTS AFTER DISINFECTION Growth” value [1, 3] was “−”.

With O=C(O)C(=O)O [Oxalic Acid] the “acceptably performing acids” value [2, 5] was “sufficient decontamination” and the “RESULTS AFTER DISINFECTION Growth” value [1, 3] was “−”.

With N[C@@H](CCC(=O)O)C(=O)O [Glutamic Acid] the “acceptably performing acids” value [2, 5] was “sufficient decontamination” and the “RESULTS AFTER DISINFECTION Growth” value [1, 3] was “−”.

In the case of O=C(O)C(O)C(O)C(=O)O [D-Tartric acid], the “RESULTS AFTER DISINFECTION Growth” value [1, 3] is reported as “−”.

For Sodium cocoyl sarcosinate [SCS], the “detergent capable of dislodging biofilms” value [2] was “capable of dislodging biofilms”.

With O=C(O)CNC(CO)(CO)CO [Tricine] the “acceptably performing acids” value [2, 5] was “sufficient decontamination” and the “RESULTS AFTER DISINFECTION Growth” value [1, 3] was “−”.

In the case of N[C@H](Cc1ccccc1)C(=O)O [D-Phenylalanine], the “RESULTS AFTER DISINFECTION Growth” value [1, 3] is reported as “−”.

For “Sodium n-decyl diphenylether disulfonate [SDDD]”, the “detergent capable of dislodging biofilms” value [2] was “capable of dislodging biofilms”.

For O=CO [Formic Acid], the “acceptably performing acids” value ([2]; pH 5) was “sufficient decontamination” and the “RESULTS AFTER DISINFECTION Growth” value ([1]; pH 5) was “−”.

In the case of O=C(O)CC(O)C(=O)O (centres unmarked) [Malic Acid], the “acceptably performing acids” value [2, 5] is reported as “sufficient decontamination” and the “RESULTS AFTER DISINFECTION Growth” value [1, 3] is reported as “−”.

With OO [hydrogen peroxide, Hydrogen peroxide] the “killing activity of bactericide, even” value (Mycobacterium sp.) was “broad host killing activity; also recorded: efficient” and the growth after treatment ([1]; hydrogen peroxide 5% in Table 1 solutions) was “total absence of growth”.

With N[C@@H](C(=O)O)c1ccccc1 [R-2-Phenylglycine] the “RESULTS AFTER DISINFECTION Growth” value [1, 3] was “−”.

For O=C(O)C(O)c1ccccc1 (centres unmarked) [Mandelic Acid], the “salt-forming acid tried against biofilm” value ([2]; mandelic acid 1% to 10%) was “success”, the “RESULTS AFTER DISINFECTION 1 hour” value [2, 6] was “−” and the “RESULTS AFTER DISINFECTION 18 hours” value [2, 4] was “−”. The “RESULTS AFTER DISINFECTION Growth” value [1, 3] was “−”.

With O=C(O)Cc1ccccc1 [Phenylacetic Acid] the “acceptably performing acids” value [2, 5] was “sufficient decontamination” and the “RESULTS AFTER DISINFECTION Growth” value [1, 3] was “−”.

O=C(O)CCl [Chloroacetic Acid] was tested, and the “RESULTS AFTER DISINFECTION 18 hours” value ([2]; pH 5) was “−” and the “RESULTS AFTER DISINFECTION Growth” value ([1]; pH 5) was “−”.

With O=C(O)c1ccccc1C(=O)O [Phthalic Acid] the “acceptably performing acids” value [2, 5] was “sufficient decontamination” and the “RESULTS AFTER DISINFECTION Growth” value [1, 3] was “−”.

O=C(O)/C=C/C(=O)O [Fumaric Acid] was tested, and the “RESULTS AFTER DISINFECTION 1 hour” value [2, 6] was “−”, the “RESULTS AFTER DISINFECTION 18 hours” value [2, 4] was “−” and the “RESULTS AFTER DISINFECTION Growth” value [1, 3] was “−”.

In the case of O=C(O)[C@@H](O)[C@H](O)[C@H](O)[C@@H](O)C(=O)O [Mucic Acid], the “RESULTS AFTER DISINFECTION 1 hour” value [2, 6] is reported as “−”, the “RESULTS AFTER DISINFECTION 18 hours” value [2, 4] is reported as “−” and the “RESULTS AFTER DISINFECTION Growth” value [1, 3] is reported as “−”.

In the case of O=C(O)c1ccccc1O [Salicylic Acid], the “acceptably performing acids” value [2, 5] is reported as “sufficient decontamination” and the “RESULTS AFTER DISINFECTION Growth” value [1, 3] is reported as “−”.

For NCC(=O)O [Glycine], the “acceptably performing acids” value [2, 5] was “sufficient decontamination” and the “RESULTS AFTER DISINFECTION Growth” value [1, 3] was “−”.

Povidone-iodine was tested, and the “efficiency of bactericide combined to detergent” value ([2]; combined to the detergent Tween 20) was “significant efficiency”, the “detergent capable of dislodging biofilms” value [2] was “capable of dislodging biofilms” and the “bactericide tried in cleaning solution” value [1] was “success”.

O=C(O)CO [Glycolic Acid] was tested, and the “RESULTS AFTER DISINFECTION 1 hour” value [2, 6] was “−”, the “RESULTS AFTER DISINFECTION 18 hours” value [2, 4] was “−” and the “RESULTS AFTER DISINFECTION Growth” value [1, 3] was “−”.

OB(O)O [Boric Acid (B(OH)3), Boric Acid] was tested, and the “acceptably performing acids” value [2, 5] was “sufficient decontamination” and the “RESULTS AFTER DISINFECTION Growth” value [1, 3] was “−”.

O=C(O)c1ccccc1 [Benzoic Acid] was tested, and the “acceptably performing acids” value ([2]; pH 5) was “sufficient decontamination” and the “RESULTS AFTER DISINFECTION Growth” value ([1]; pH 5) was “−”.

With O=C1O[C@H]([C@@H](O)CO)C(O)=C1O [L-Ascorbic Acid] the “RESULTS AFTER DISINFECTION 1 hour” value [2, 6] was “++++” and the “RESULTS AFTER DISINFECTION Growth” value [1, 3] was “−”.
